The values that follow come from ChEMBL document CHEMBL3045631, “Anticandidiasis agents from a Tanzanian plant, Combretum zeyheri” (2013).

Assay type in all cases: functional
In test [1] the test system is Candida albicans. The experiment in a line: Antifungal activity against Candida albicans clinical isolate by two-fold serial microdilution method. On the technique in general: In broth dilution the organism is exposed to a series of concentrations in liquid medium.
In test [2] the test system is Candida albicans. The experiment in a line: Antifungal activity against Candida albicans ATCC 90028 by two-fold serial microdilution method.
Test [3] relates to Candida albicans. Nature of the test: Antifungal activity against Candida albicans MTCC 1637 by two-fold serial microdilution method.

≈ marks a conversion by molar mass, not a printed value.

As for `CC1(C)CC[C@]2(C(=O)O)CC[C@]3(C)C(=CC[C@@H]4[C@@]5(C)C[C@@H](O)[C@H](O)C(C)(C)[C@@H]5[C@H](O)C[C@]43C)[C@@H]2C1` [6-beta-hydroxymaslinic acid], the MIC against Candida albicans [1], in the test on Candida albicans [2] and in the test with Candida albicans [3] was over 250 µg/mL throughout.
For the molecule `C[C@@H]1[C@H](O)[C@@H](C)/C=C/C=C/C=C/C=C/C=C/C=C/C=C/[C@H](O[C@@H]2O[C@H](C)[C@@H](O)[C@H](N)[C@@H]2O)C[C@@H]2O[C@](O)(C[C@@H](O)C[C@@H](O)[C@H](O)CC[C@@H](O)C[C@@H](O)CC(=O)O[C@H]1C)C[C@H](O)[C@H]2C(=O)O` [AMPHOTERICIN B], the MIC with Candida albicans [1] came out at 6.25 µg/mL (≈ 6.76 µM); in the test with Candida albicans [2] it was 3.13 µg/mL (≈ 3.39 µM); in the test with Candida albicans [3] it was 3.13 µg/mL (≈ 3.39 µM).
In the case of `Clc1ccccc1C(c1ccccc1)(c1ccccc1)n1ccnc1` [CLOTRIMAZOLE], the minimum inhibitory concentration (MIC) was found to be 0.39 µg/mL (≈ 1.13 µM) with Candida albicans [1], 0.78 µg/mL (≈ 2.26 µM) in the test on Candida albicans [2] and 0.39 µg/mL (≈ 1.13 µM) against Candida albicans [3].
Turning to `CC1(C)CC[C@]2(C(=O)O)CC[C@]3(C)C(=CC[C@@H]4[C@@]5(C)C[C@@H](O)[C@H](O)[C@@](C)(CO)[C@@H]5[C@H](O)C[C@]43C)[C@@H]2C1` [TERMINOLIC ACID], the minimum inhibitory concentration (MIC) is 125 µg/mL (≈ 248 µM) in the test on Candida albicans [1], 62.5 µg/mL (≈ 124 µM) in the test with Candida albicans [2] and 125 µg/mL (≈ 248 µM) with Candida albicans [3].

Broadly, the MIC is the lowest concentration found to suppress growth. Read a high MIC as a less susceptible organism.
